According to the supplement of paper PMC10307832:

Assays:
Test in all cases: relative viability (nuclei count vs DMSO), 5 days (fraction); higher = more cells survive
[1] = compound: CN1CCN(CC1)C2=CC(=C(C=C2)NC3=NC=C4C(=N3)N(C5=CC=CC=C5C(=O)N4C)C)OC [XMD8-85] + C[C@@H](Oc1cc(-c2cnn(C3CCNCC3)c2)cnc1N)c1c(Cl)ccc(F)c1Cl [Crizotinib] (partner 1 µM)
Summary of the method: (§1)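 Relative viability equals treated-well nuclei counts divided by vehicle-well nuclei counts. Counts came from 4× images of lung cancer cell lines grown in 1536-well plates for 5 days after pin-tool dosing on the day after seeding. Dosing used one drug alone or a fixed anchor-drug dose plus five library-drug doses (not always all listed) in √10 steps, and values are medians of duplicate plates.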

[2] = compound: CN1CCN(CC1)C2=CC(=C(C=C2)NC3=NC=C4C(=N3)N(C5=CC=CC=C5C(=O)N4C)C)OC [XMD8-85] + Nc1ncn([C@H]2C[C@H](O)[C@@H](CO)O2)c(=O)n1 [Decitabine] (partner 2 µM)
Summary of the method: as §1

[3] = compound: O=C(O)C(Cc1ccccc1[N+](=O)[O-])=NNc1nc(-c2ccc(Cl)c(Cl)c2)cs1 (mixture of isomers) [4EGI-1] + Cc1cc(Nc2cc(N3CCN(C)CC3)nc(Sc3ccc(NC(=O)C4CC4)cc3)n2)n[nH]1 [Tozasertib] (partner 0.1 µM)
Summary of the method: as §1

[4] = compound: O=C(O)C(Cc1ccccc1[N+](=O)[O-])=NNc1nc(-c2ccc(Cl)c(Cl)c2)cs1 (mixture of isomers) [4EGI-1] + O=C(CCCCCCC(=O)Nc1ccccc1)NO [Vorinostat] (partner 1 µM)
Summary of the method: as §1

Cell Line	relative viability ([1]; first compound 0.08 µM)	relative viability ([1]; first compound 0.253 µM)	relative viability ([1]; first compound 0.8 µM)	relative viability ([1]; first compound 2.53 µM)	relative viability ([1]; first compound 8 µM)	relative viability ([2]; first compound 0.08 µM)	relative viability ([2]; first compound 0.253 µM)	relative viability ([2]; first compound 0.8 µM)	relative viability ([2]; first compound 2.53 µM)	relative viability ([2]; first compound 8 µM)	relative viability ([3]; first compound 0.5 µM)	relative viability ([3]; first compound 5 µM)	relative viability ([3]; first compound 15.81 µM)	relative viability ([3]; first compound 50 µM)	relative viability ([4]; first compound 0.5 µM)	relative viability ([4]; first compound 5 µM)	relative viability ([4]; first compound 15.81 µM)	relative viability ([4]; first compound 50 µM)	relative viability ([3]; first compound 1.581 µM)	relative viability ([4]; first compound 1.581 µM)
NCI-H1944	1.02	0.999	1.3	1.35	0.979	0.451	0.404	0.462	0.456	0.422	0.262	0.241	0.192	0.202	0.611	0.603	0.489	0.418	–	–
NCI-H1623	–	–	–	–	–	–	–	–	–	–	0.481	0.535	0.36	0.33	–	–	–	–	0.421	–
NCI-H1563	0.931	0.812	0.72	0.841	0.757	–	–	–	–	–	–	–	–	–	–	–	–	–	–	–
NCI-H1666	0.789	0.917	1.35	1.31	0.705	0.703	0.724	–	0.692	0.68	0.61	0.647	0.448	0.328	0.997	0.949	0.992	0.604	0.535	1.12
LCLC-103H	0.973	1.07	1.14	1.07	0.761	0.789	0.763	0.713	0.688	0.605	0.557	0.537	0.434	0.394	0.619	0.851	0.746	0.282	0.479	0.75
NCI-H1734	0.614	0.646	0.724	0.577	0.368	–	0.519	0.528	0.591	0.464	0.263	0.263	0.288	0.214	0.965	0.966	0.545	0.329	0.27	0.67
HOP-62	1.04	1.07	0.951	0.835	0.724	0.235	0.199	0.186	0.228	0.236	0.385	0.403	0.34	0.211	0.65	0.715	0.616	0.104	0.257	0.346
HCC-15	0.852	0.859	0.855	0.806	0.592	0.537	0.642	0.782	0.749	0.517	0.331	0.5	0.308	0.155	0.863	0.809	0.686	0.513	0.377	0.812
NCI-H2405	0.829	0.815	0.769	0.85	0.665	0.672	0.765	0.705	0.854	0.75	0.723	0.815	0.789	0.839	1.07	1.02	1.01	0.35	0.645	–
NCI-H1793	–	–	–	–	–	–	0.473	0.482	0.575	0.583	0.318	0.391	0.247	0.2	1.03	0.999	0.516	0.353	0.364	0.823
NCI-H1703	–	0.586	0.649	0.47	0.315	–	–	–	–	–	–	–	–	–	–	–	–	–	–	–
